From publication PMC8808171, “Nonselective TRPC channel inhibition and suppression of aminoglycoside-induced premature termination codon readthrough by the small molecule AC1903” (The Journal of Biological Chemistry, 2022) come the findings set out here.

One assay deals with T1, TRPC1:C4 (A498) (Homo sapiens, UniProt P48995+Q9UBN4).
T1 construct: endogenous in cells; host or cells: A498
The assay can be described thus: [Ca2+]i recordings (Fura-2), endogenous TRPC1:C4 channels in A498 cells. The settings on record: activator EA (100 nM). Type of assay: cell-based. The method, then:
HEK T-REx cells expressing tetracycline-inducible TRPC4, TRPC5, TRPC5–C1,TRPC4–C1, and hPiezo1 have been described previously ([46], [57], [59], [78]). Cloning of TRPC3 has been described previously ([79]). To create cells stably expressing tetracycline-inducible TRPC3, HEK T-REx cells were transfected with pcDNA4/TO/hTRPC3 using jetPRIME transfection reagent (VWR) according to manufacturer’s instructions. After 48 h cells were put under antibiotic selection using 400 μg/ml zeocin and 10 μg/ml Blasticidin S (Invivogen)). Medium changes were carried out every 2 to 3 days to remove dead cells. Inducible HEK T-REx cells were cultured in Dulbecco’s modified Eagle medium GlutaMAX (Thermo Fisher Scientific) containing 10% fetal bovine serum (FBS; Merck), penicillin-streptomycin (100 units ml^−1/100 μg ml^−1), with the addition of blasticidin (10 μg ml^1; Invivogen) and zeocin (Invivogen) at either 400 μg ml^−1 (TRPC cell lines) or 200 μg ml^−1 (hPiezo1) to maintain the stable incorporation of the tetracycline repressor and the channel of interest, respectively. Expression of tetracycline-inducible proteins was induced by the addition of tetracycline (TRPC cell lines: 1 μg ml^−1, hPiezo1: 100 ng ml^−1; 24 h) to cell culture medium. […]
For Ca^2+ recording, electrophysiology, and cell viability experiments, data were analyzed using GraphPad Prism 9.0. […]

The next assay has as its target T2, TRPV1:V1 (Rattus norvegicus, UniProt O35433).
T2 construct: expressed in transfected cells; host or cells: WT HEK 293 (transient)
Briefly: [Ca2+]i recordings (Fura-2), TRPV1:V1 in HEK 293 cells. In kind it is cell-based. How it is done:
Based on the findings described above, we wondered whether AC1903—which is typically used as a TRPC5 inhibitor at concentrations of 30–100 μM in cellular assays ([29], [56])—might have limited selectivity for TRPC5 channels and whether its effect on intracellular G418 levels and PTC readthrough might be the consequence of inhibition of other or multiple targets. All well-characterized TRPC channel inhibitors reported to date modulate multiple TRP(C) channels ([34], [35], [36]). […] Because limited data for the selectivity of AC1903 are available in the public domain, we decided to profile AC1903 against a selection of calcium-permeable cation channels by intracellular calcium ([Ca^2+]i) recordings using well-characterized cell lines and TRP channel activators ([46], [57], [58]), and the Ca^2+ indicator Fura-2. In these assays, cells (HEK 293, HEK T-REx, or CHO) overexpressing the relevant ion channel protein and loaded with Fura-2 AM (a cell-permeable precursor of Fura-2) were preincubated with various concentrations of AC1903 or vehicle (DMSO) for 30 min. Then, changes in ratiometric fluorescence (from background) were recorded upon addition of the respective ion channel activator.
HEK T-REx cells expressing tetracycline-inducible TRPC4, TRPC5, TRPC5–C1,TRPC4–C1, and hPiezo1 have been described previously ([46], [57], [59], [78]). Cloning of TRPC3 has been described previously ([79]). To create cells stably expressing tetracycline-inducible TRPC3, HEK T-REx cells were transfected with pcDNA4/TO/hTRPC3 using jetPRIME transfection reagent (VWR) according to manufacturer’s instructions. After 48 h cells were put under antibiotic selection using 400 μg/ml zeocin and 10 μg/ml Blasticidin S (Invivogen)). Medium changes were carried out every 2 to 3 days to remove dead cells. […]

A word on the Hill slope: it is the slope factor of the fitted curve. Usually IC50 stands for the concentration at which inhibition is half-maximal. Read a high IC50 as weaker potency in that assay.

“Also recorded” adds a separate entry of the source.

T2 sequence (O35433 whole entry): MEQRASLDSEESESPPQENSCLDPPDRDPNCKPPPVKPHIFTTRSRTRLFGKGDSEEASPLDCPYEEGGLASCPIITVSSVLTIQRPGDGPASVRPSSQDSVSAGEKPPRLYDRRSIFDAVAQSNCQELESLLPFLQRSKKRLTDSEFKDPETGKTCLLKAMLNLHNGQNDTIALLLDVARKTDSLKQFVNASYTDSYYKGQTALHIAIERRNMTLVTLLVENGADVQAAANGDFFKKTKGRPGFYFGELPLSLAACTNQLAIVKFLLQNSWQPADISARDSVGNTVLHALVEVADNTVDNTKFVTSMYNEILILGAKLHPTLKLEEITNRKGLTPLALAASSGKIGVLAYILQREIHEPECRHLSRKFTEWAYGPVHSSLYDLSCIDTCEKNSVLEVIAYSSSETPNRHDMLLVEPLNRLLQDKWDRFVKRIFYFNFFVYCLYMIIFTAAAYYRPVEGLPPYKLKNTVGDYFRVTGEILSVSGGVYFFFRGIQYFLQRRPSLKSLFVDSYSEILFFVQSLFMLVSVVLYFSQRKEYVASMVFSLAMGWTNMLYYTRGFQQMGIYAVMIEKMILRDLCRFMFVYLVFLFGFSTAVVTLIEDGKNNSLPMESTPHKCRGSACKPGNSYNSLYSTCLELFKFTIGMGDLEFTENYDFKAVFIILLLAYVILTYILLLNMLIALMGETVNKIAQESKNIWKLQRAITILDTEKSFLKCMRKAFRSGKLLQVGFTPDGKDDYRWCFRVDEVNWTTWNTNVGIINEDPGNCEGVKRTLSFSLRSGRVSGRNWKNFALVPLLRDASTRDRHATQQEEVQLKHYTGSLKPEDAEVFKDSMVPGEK
T1 sequence (Q9UBN4 whole entry): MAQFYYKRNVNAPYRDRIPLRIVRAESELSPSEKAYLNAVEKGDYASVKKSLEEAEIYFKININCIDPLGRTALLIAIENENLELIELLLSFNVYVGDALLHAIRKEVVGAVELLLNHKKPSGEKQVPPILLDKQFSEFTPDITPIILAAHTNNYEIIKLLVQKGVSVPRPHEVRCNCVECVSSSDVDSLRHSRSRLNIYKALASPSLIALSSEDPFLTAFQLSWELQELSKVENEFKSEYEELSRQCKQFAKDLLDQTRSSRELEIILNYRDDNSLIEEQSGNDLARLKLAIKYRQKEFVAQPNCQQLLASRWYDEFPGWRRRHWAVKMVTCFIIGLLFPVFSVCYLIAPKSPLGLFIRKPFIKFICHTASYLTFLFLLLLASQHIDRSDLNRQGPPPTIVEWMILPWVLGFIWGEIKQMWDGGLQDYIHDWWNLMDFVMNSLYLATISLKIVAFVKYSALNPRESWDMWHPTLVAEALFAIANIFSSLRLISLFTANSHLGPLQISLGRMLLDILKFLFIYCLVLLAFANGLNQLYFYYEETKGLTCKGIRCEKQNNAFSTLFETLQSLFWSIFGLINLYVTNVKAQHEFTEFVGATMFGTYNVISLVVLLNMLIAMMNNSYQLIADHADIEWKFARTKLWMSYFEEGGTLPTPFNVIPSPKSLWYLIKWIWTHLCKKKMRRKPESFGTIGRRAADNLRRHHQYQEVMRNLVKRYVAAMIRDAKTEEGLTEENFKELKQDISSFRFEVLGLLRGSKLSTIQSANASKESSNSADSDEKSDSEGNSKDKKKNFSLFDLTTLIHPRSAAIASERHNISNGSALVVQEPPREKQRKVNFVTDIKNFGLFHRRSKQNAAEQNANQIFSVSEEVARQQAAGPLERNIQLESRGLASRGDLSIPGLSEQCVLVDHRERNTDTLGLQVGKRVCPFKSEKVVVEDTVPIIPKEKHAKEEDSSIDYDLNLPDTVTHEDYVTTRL
T1 sequence (P48995 whole entry): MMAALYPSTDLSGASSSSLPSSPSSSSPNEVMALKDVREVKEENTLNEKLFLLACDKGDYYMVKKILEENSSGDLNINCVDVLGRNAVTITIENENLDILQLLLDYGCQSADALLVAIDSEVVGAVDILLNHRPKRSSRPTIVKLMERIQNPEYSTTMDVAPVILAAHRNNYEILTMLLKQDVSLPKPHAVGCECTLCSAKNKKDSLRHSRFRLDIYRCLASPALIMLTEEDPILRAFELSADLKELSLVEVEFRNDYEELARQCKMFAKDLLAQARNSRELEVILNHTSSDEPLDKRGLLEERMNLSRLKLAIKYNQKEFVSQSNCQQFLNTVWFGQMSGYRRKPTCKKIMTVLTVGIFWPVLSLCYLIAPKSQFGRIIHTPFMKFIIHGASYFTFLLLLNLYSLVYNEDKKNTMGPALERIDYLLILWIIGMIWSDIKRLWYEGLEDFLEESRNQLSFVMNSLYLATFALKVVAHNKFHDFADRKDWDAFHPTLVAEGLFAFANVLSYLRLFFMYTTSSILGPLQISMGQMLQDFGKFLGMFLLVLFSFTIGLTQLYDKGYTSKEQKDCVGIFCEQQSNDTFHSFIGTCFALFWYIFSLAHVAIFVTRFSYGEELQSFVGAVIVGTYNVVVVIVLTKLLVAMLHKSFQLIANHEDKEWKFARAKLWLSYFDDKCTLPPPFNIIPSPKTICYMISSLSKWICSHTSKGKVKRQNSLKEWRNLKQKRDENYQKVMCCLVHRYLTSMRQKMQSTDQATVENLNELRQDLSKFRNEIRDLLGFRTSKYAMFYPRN

Turning to `c1ccc(Cn2c(NCc3ccco3)nc3ccccc32)cc1` [AC1903], the Hill slope at TRPC1:C4 (A498) (A498) is given as -1.2. The IC50 at TRPC1:C4 (A498) (A498 cells) was 3.4 µM; against TRPV1:V1 (HEK 293, activator capsaicin (500 nM)), over 50 µM. Besides, at TRPV1:V1 (AC1903 100 μM), the “effect on capsaicin-activated TRPV1” value was “small effects”. Further, the “inhibition of capsaicin-activated TRPV1” value on TRPV1:V1 (AC1903 up to 30 μM) is listed as “does not affect; also recorded: did not inhibit”.
